Reference: PubChem BioAssay (NCI)
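1) Cells in 96-well plates. 2) Compound, 48 h, 5 concentrations. 3) Linear interpolation between surrounding doses. 4) Unreached endpoint = highest concentration. TGI: total growth inhibition.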

Assays:
Assay in all cases: NCI anticancer screen, dose series, 48 h
[1] = system: K-562 leukemia
[2] = system: M14 melanoma
[3] = system: MALME-3M melanoma
[4] = system: MOLT-4 leukemia
[5] = system: OVCAR-3 ovarian
[6] = system: OVCAR-4 ovarian
[7] = system: SK-OV-3 ovarian
[8] = system: SN12C renal
[9] = system: SK-MEL-2 melanoma

| Compound | TGI [1] | TGI [2] | TGI [3] | TGI [4] | TGI [5] | TGI [6] | TGI [7] | TGI [8] | TGI [9] |
| --- | --- | --- | --- | --- | --- | --- | --- | --- | --- |
| CCN(CC)CC(C(=O)Nc1c(C)cccc1C)/C(C)=N\NC(=O)C[N+](C)(C)C (stereo unspecified) | > 100 µM | > 100 µM | > 100 µM | > 100 µM | > 100 µM | > 100 µM | > 100 µM | > 100 µM | – |
| O=C(O)C(Cc1ccccc1)N1C(=O)N/C(=C\c2ccc(F)cc2)C1=O (stereo unspecified) | > 100 µM | > 100 µM | – | > 100 µM | – | > 100 µM | > 100 µM | > 100 µM | > 100 µM |
| COc1ccc(/C=C\c2cc(OC)c3c(c2)OCO3)c(O)c1O | 27 µM | 11.7 µM | 48.7 µM | 47.5 µM | 47.4 µM | 20.6 µM | > 77 µM | 41.4 µM | 42.6 µM |
| O=[S@@]1Nc2ccc(Br)cc2S1 | > 100 µM | > 100 µM | > 100 µM | > 100 µM | > 100 µM | – | > 100 µM | > 100 µM | > 100 µM |
| CCOC(=O)COc1cccc2c1C(=O)CCO2 | > 100 µM | > 100 µM | > 100 µM | > 100 µM | > 100 µM | > 100 µM | > 100 µM | > 100 µM | > 100 µM |
| CN(CC(=O)O)S(=O)(=O)c1ccc2ccccc2c1 | > 100 µM | > 100 µM | > 100 µM | > 100 µM | > 100 µM | > 100 µM | > 100 µM | > 100 µM | > 100 µM |
| CCNC1C2(CCCCC2)NC(=O)C12CCCCC2 (stereo unspecified) | > 100 µM | > 100 µM | > 100 µM | > 100 µM | > 100 µM | > 100 µM | > 100 µM | – | > 100 µM |
| CC(=O)OC1COC(n2c(=S)n(-c3ccc(C)cc3)c(=O)c3ccccc32)C(OC(C)=O)C1OC(C)=O (stereo unspecified) | – | > 100 µM | > 100 µM | > 100 µM | > 100 µM | > 100 µM | > 100 µM | > 100 µM | > 100 µM |
| N#CC(C#N)=c1ccc(=C2NCC3CCCN23)cc1 (stereo unspecified) | > 100 µM | > 100 µM | > 100 µM | > 100 µM | – | > 100 µM | > 100 µM | > 100 µM | > 100 µM |
| C=CCc1cc(OC)c2c(c1)C(O)CC(c1ccc(OC)c(OC)c1)O2 (stereo unspecified) | > 100 µM | > 100 µM | – | > 100 µM | > 100 µM | > 100 µM | > 100 µM | > 100 µM | > 100 µM |
| Cc1cc(=O)[nH]c(NNC(C#N)c2cccc(O)c2)n1 (stereo unspecified) | > 100 µM | > 100 µM | > 100 µM | > 100 µM | > 100 µM | > 100 µM | > 100 µM | > 100 µM | > 100 µM |
| O=C1NC2(CCCCC2)C2CCCCC(O)C12 (stereo unspecified) | > 100 µM | – | > 100 µM | > 100 µM | > 100 µM | – | – | > 100 µM | > 100 µM |
| COc1cccc(NC(=O)CC(=O)n2nc(C)c(N=Nc3ccccc3)c2C)c1 | – | > 100 µM | > 100 µM | > 100 µM | > 100 µM | > 100 µM | > 100 µM | > 100 µM | – |
| CC1CN1P1(N2CC2C)=NP(N2CC2C)(N2CC2C)=NP(N2CC2C)(N2CC2C)=N1 (stereo unspecified) | > 50 µM | > 50 µM | > 50 µM | > 50 µM | > 50 µM | > 50 µM | > 50 µM | > 50 µM | – |
| O=C(CSC(=S)N1CCCCC1)Nc1nc2c(s1)CCCC2 | – | > 100 µM | > 100 µM | 47.8 µM | – | > 100 µM | > 100 µM | > 100 µM | > 100 µM |
| NC(CCc1nc(-c2ccc(Cl)cc2)cs1)C(=O)O (stereo unspecified) | – | > 100 µM | > 100 µM | > 100 µM | > 100 µM | > 100 µM | > 100 µM | > 100 µM | > 100 µM |
| FC(F)(F)c1ccc(C2SCc3nc4ccccc4n32)cc1 (stereo unspecified) | > 100 µM | – | > 100 µM | > 100 µM | – | – | > 100 µM | > 100 µM | > 100 µM |
| COc1ccc(-c2cc(=O)c3ccc(O)cc3o2)c(OC)c1OC | > 100 µM | > 100 µM | > 100 µM | – | > 100 µM | > 100 µM | > 100 µM | > 100 µM | > 100 µM |
| C/C(CCn1[nH]c(=O)ccc1=O)=N\O | > 100 µM | > 100 µM | > 100 µM | > 100 µM | > 100 µM | > 100 µM | – | > 100 µM | > 100 µM |
| COc1ccc2c(c1)C1(C=N2)CCN(C(C)=O)CC1 | > 100 µM | > 100 µM | > 100 µM | > 100 µM | > 100 µM | > 100 µM | > 100 µM | – | > 100 µM |
| O=C(O)CCSC(=O)Nc1cccc(F)c1 | > 100 µM | 45.4 µM | – | > 100 µM | > 100 µM | – | – | > 100 µM | > 100 µM |
| CCOC(=O)C1=C(C)CC2C(=O)OC(=O)C2C1(C)C (stereo unspecified) | > 100 µM | > 100 µM | > 100 µM | > 100 µM | > 100 µM | – | > 100 µM | > 100 µM | > 100 µM |
